Experimental findings from ChEMBL document CHEMBL1124911, “Inhibition of human leukocyte elastase. 2. Inhibition by substituted cephalosporin esters and amides” (J Med Chem, 1990) are described below.

The target in test [1] is T1, Neutrophil elastase (Homo sapiens) (UniProt P08246).
T1 sequence (whole entry): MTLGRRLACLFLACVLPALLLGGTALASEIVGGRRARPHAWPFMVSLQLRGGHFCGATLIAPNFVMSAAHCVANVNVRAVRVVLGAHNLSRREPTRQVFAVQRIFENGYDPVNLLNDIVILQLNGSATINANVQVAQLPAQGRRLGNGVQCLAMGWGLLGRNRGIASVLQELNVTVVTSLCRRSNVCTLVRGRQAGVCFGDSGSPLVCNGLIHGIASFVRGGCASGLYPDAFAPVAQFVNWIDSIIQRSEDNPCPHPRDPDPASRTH
Description: Second-order rate constant for time-dependent inactivation of leukocyte elastase

In test [2] the target is T2, Neutrophil elastase (Homo sapiens, UniProt P08246).
T2 sequence (P08246 whole entry): T1 sequence (whole entry)
As to the kind of experiment: In vitro inhibition of Human Leukocyte Elastase (HLE).

Test [3] addresses T1, Neutrophil elastase (Homo sapiens). This is another data set of the same source.
Description: Second-order rate constant for time-dependent inactivation of Human Leukocyte Elastase was determined; H means an inverse progress curve was observed
Test [4] shares this target. The source holds these as a separate data set.
For test [5] the target is unchanged. As to the kind of experiment: Second-order rate constant for time-dependent inactivation of Human Leukocyte Elastase was determined; G means no time-dependent inhibition was observed.

The structures appear in SMILES notation.

For `CCCC[C@H](NC(=O)OC(C)(C)C)[C@@H](O)C(=O)O[C@H]1C[C@@]2(O)[C@@H](OC(=O)c3ccccc3)[C@@H]3[C@]4(OC(C)=O)CO[C@@H]4C[C@H](O)[C@@]3(C)[C@@H](O)[C@H](OC(C)=O)C(=C1C)C2(C)C`, the K obs / 1 in test [1] came to 900 M⁻¹ s⁻¹.

Turning to `COC(=O)CN(C)C(=O)C1=C(COC(C)=O)CS(=O)(=O)[C@@H]2[C@@H](OC)C(=O)N12`, in test [1], the K obs / 1 amounted to 9500 M⁻¹ s⁻¹.

In test [1], `CO[C@H]1C(=O)N2C(C(=O)N(C)CC(=O)O)=C(COC(C)=O)CS(=O)(=O)[C@H]12` had a K obs / 1 of 300 M⁻¹ s⁻¹. 5000 nM corresponded to half-maximal inhibition in test [2] (IC50).

`CO[C@H]1C(=O)N2C(C(=O)N3CCCC3)=C(COC(C)=O)CS(=O)(=O)[C@H]12`: the K obs / 1 in test [1] stood at 27000 M⁻¹ s⁻¹.

Take `COc1ccc(COC(=O)C2=C(COC(C)=O)CS(=O)(=O)[C@@H]3[C@@H](OC)C(=O)N23)cc1`: the “K obs / 1” value in test [3] is “Inverse progress curve was observed”. Also, the IC50 in test [2] is 100 nM.

Consider `COC(=O)C1=C(COC(C)=O)CS(=O)(=O)[C@@H]2[C@@H](OC)C(=O)N12`, for which, in test [2], the concentration for half-maximal inhibition (IC50) is 200 nM. Further, in test [4], the K obs / 1 was determined as 17000 M⁻¹ s⁻¹.

Take `CO[C@H]1C(=O)N2C(C(=O)N(C)CC(=O)OC(C)(C)C)=C(COC(C)=O)CS(=O)(=O)[C@H]12`: the IC50 in test [2] is 200 nM.

As for `CO[C@H]1C(=O)N2C(C(=O)O)=C(COC(C)=O)CS(=O)(=O)[C@H]12`, the IC50 in test [2] was greater than 50000 nM.

Regarding `CO[C@H]1C(=O)N2C(C(=O)OCc3ccccc3)=C(COC(C)=O)CS(=O)(=O)[C@H]12`, in test [5], the “K obs / 1” value was “No time-dependent inhibition was observed”. Also, half-maximal inhibition in test [2] (IC50) required 70 nM.

Regarding `CO[C@H]1C(=O)N2C(C(=O)OCc3ccc(C(C)(C)C)cc3)=C(COC(C)=O)CS(=O)(=O)[C@H]12`, the “K obs / 1” value in test [3] is “Inverse progress curve was observed”. 200 nM corresponded to half-maximal inhibition in test [2] (IC50).

With `CO[C@H]1C(=O)N2C(C(=O)N(C)C)=C(COC(C)=O)CS(=O)(=O)[C@H]12`, the K obs / 1 in test [1] amounted to 3900 M⁻¹ s⁻¹. Moreover, half-maximal inhibition in test [2] (IC50) was put at 2000 nM.

With `CO[C@H]1C(=O)N2C(C(=O)NCC(=O)O)=C(COC(C)=O)CS(=O)(=O)[C@H]12`, the IC50 in test [2] is greater than 50000 nM.

`CCOC(=O)COC(=O)C1=C(COC(C)=O)CS(=O)(=O)[C@@H]2[C@@H](OC)C(=O)N12`: it took 100 nM to reach half-maximal inhibition in test [2] (IC50).

Turning to `CO[C@H]1C(=O)N2C(C(=O)OCc3ccc(C(=O)OC(C)(C)C)cc3)=C(COC(C)=O)CS(=O)(=O)[C@H]12`, in test [5], the “K obs / 1” value was “No time-dependent inhibition was observed”. 400 nM corresponded to half-maximal inhibition in test [2] (IC50).

On to `CO[C@H]1C(=O)N2C(C(=O)OC(C)(C)C)=C(COC(C)=O)CS(=O)(=O)[C@H]12`, for which the K obs / 1 in test [4] was found to be 16000 M⁻¹ s⁻¹.

`CO[C@H]1C(=O)N2C(C(=O)N(C)CCC(=O)O)=C(COC(C)=O)CS(=O)(=O)[C@H]12`: in test [1], the K obs / 1 was found to be 500 M⁻¹ s⁻¹.

The molecule `CO[C@H]1C(=O)N2C(C(=O)N(C)Cc3ccc(C(=O)O)cc3)=C(COC(C)=O)CS(=O)(=O)[C@H]12` gave a K obs / 1 in test [1] of 8600 M⁻¹ s⁻¹. The concentration for half-maximal inhibition (IC50) in test [2] worked out at 400 nM.

`CO[C@H]1C(=O)N2C(C(=O)NCCC(=O)O)=C(COC(C)=O)CS(=O)(=O)[C@H]12` had an IC50 in test [2] greater than 50000 nM.

For the molecule `CO[C@H]1C(=O)N2C(C(=O)N3CCOCC3)=C(COC(C)=O)CS(=O)(=O)[C@H]12`, in test [1], the K obs / 1 was determined as 35000 M⁻¹ s⁻¹.

In turn, `CO[C@H]1C(=O)N2C(C(=O)NC(C)(C)C)=C(COC(C)=O)CS(=O)(=O)[C@H]12` had a K obs / 1 in test [1] of 2200 M⁻¹ s⁻¹. The concentration for half-maximal inhibition (IC50) in test [2] turned out to be 800 nM.

In test [1], `COC(=O)CCN(C)C(=O)C1=C(COC(C)=O)CS(=O)(=O)[C@@H]2[C@@H](OC)C(=O)N12` yielded a K obs / 1 of 6200 M⁻¹ s⁻¹.

By IC50 is commonly meant the midpoint of a concentration-inhibition curve.
